This assay concerns the target alpha-glucosidase from Saccharomyces cerevisiae (Baker's yeast) (Saccharomyces cerevisiae, UniProt P53341). In words: In vitro α-glucosidase inhibitory activity. The format is biochemical.
Sequence of alpha-glucosidase from Saccharomyces cerevisiae (Baker's yeast) (P53341 whole entry): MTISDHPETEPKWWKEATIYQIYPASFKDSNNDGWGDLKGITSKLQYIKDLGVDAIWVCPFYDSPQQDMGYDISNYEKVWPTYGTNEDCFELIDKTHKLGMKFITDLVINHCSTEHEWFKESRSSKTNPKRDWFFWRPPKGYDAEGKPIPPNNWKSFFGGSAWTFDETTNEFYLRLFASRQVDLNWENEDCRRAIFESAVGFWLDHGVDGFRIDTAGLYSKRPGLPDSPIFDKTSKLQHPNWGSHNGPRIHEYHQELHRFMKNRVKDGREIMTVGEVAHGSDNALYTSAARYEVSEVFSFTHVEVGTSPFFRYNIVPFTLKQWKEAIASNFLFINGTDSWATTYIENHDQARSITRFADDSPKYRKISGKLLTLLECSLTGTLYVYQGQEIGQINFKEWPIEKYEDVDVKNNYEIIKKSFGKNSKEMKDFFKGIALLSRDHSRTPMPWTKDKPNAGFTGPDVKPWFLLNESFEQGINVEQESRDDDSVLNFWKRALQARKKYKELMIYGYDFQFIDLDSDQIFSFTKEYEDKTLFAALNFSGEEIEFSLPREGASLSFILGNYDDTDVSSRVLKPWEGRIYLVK
A word on the IC50: it is the concentration that gives 50% inhibition. Low readings indicate greater potency, high ones weaker potency. Consider `CCCCCCSc1nc2ccccc2n1CC(=O)NN1C(=O)CSC1c1ccc([N+](=O)[O-])cc1` (stereo not drawn) [Compound 5, 2-[2-(Hexylthio)-1H-benzo[d]imidazole-1-yl]-N-[2-(4-nitrophenyl)-4-oxothiazolidin-3-yl]acetamide], for which 5.22 ± 0.14 µM corresponded to half-maximal inhibition (IC50).

`CCCCCCSc1nc2ccccc2n1CC(=O)NN1C(=O)CSC1c1ccc(C=O)cc1` (stereo not drawn) [Compound 8, 2-[2-(Hexylthio)-1H-benzo[d]imidazole-1-yl]-N-[2-(4-formylphenyl)-4-oxothiazolidin-3-yl]acetamide] registered an IC50 of 5.69 ± 0.1 µM.

As for `CCCCCCSc1nc2ccccc2n1CC(=O)NN1C(=O)CSC1c1cccc(OC)c1O` (stereo not drawn) [Compound 11, 2-[2-(Hexylthio)-1H-benzo[d]imidazole-1-yl]-N-[-2-(2-hydroxy-3-methoxyphenyl)-4-oxothiazolidin-3-yl]acetamide], the midpoint of inhibition, the IC50, lay at 24.1 ± 0.3 µM.

`CCCCCCSc1nc2ccccc2n1CC(=O)NN1C(=O)CSC1c1ccc(Cl)cc1Cl` (stereo not drawn) [Compound 12, 2-[2-(Hexylthio)-1H-benzo[d]imidazole-1-yl]-N-[2-(2,4-dichlorophenyl)-4-oxothiazolidin-3-yl]acetamide] yielded an IC50 of 33.4 ± 0.38 µM.

Take `CCCCCCSc1nc2ccccc2n1CC(=O)NN1C(=O)CSC1c1ccc(O)c(OC)c1` (stereo not drawn) [Compound 14, 2-[2-(Hexylthio)-1H-benzo[d]imidazole-1-yl]-N-[2-(4-hydroxy-3-methoxyphenyl)-4-oxothiazolidin-3-yl]acetamide]: the IC50 came to 10.2 ± 0.12 µM.

With `CCCCCCSc1nc2ccccc2n1CC(=O)NN1C(=O)CSC1c1ccccc1OC` (stereo not drawn) [Compound 15, 2-[2-(Hexylthio)-1H-benzo[d]imidazole-1-yl]-N-[2-(2-methoxyphenyl)-4-oxothiazolidin-3-yl]acetamide], the IC50 was 89.28 ± 0.52 µM.

The compound `CCCCCCSc1nc2ccccc2n1CC(=O)NN1C(=O)CSC1c1ccc(OC)cc1` (stereo not drawn) [Compound 17, 2-[2-(Hexylthio)-1H-benzo[d]imidazole-1-yl]-N-[2-(4-methoxyphenyl)-4-oxothiazolidin-3-yl]acetamide] had an IC50 of 63.68 ± 0.52 µM.

`CCCCCCSc1nc2ccccc2n1CC(=O)NN1C(=O)CSC1c1ccc(C)o1` (stereo not drawn) [Compound 19, 2-[2-(Hexylthio)-1H-benzo[d]imidazole-1-yl]-N-[2-(5-methylfuran-2-yl)-4-oxothiazolidin-3-yl]acetamide] came in with an IC50 of 39.06 ± 0.27 µM.

Turning to `CCCCCCSc1nc2ccccc2n1CC(=O)NN1C(=O)CSC1c1cccs1` (stereo not drawn) [Compound 21, 2-[2-(Hexylthio)-1H-benzo[d]imidazole-1-yl]-N-[4-oxo-2-(thiophen-2-yl)-thiazolidin-3-yl]acetamide], half-maximal inhibition (IC50) required 54.4 ± 0.65 µM.

The compound `CCCCCCSc1nc2ccccc2n1CC(=O)NN1C(=O)CSC1c1ccc2ccccc2c1` (stereo not drawn) [Compound 22, 2-[2-(Hexylthio)-1H-benzo[d]imidazole-1-yl]-N-[2-(naphthalen-2-yl)-4-oxothiazolidin-3-yl]acetamide] displayed a half-inhibitory concentration (IC50) of 41 ± 0.36 µM.

`CCCCCCSc1nc2ccccc2n1CC(=O)NN1C(=O)CSC1c1ccc(F)cc1` (stereo not drawn) [Compound 23, 2-[2-(Hexylthio)-1H-benzo[d]imidazole-1-yl]-N-[2-(4-fluorophenyl)-4-oxothiazolidin-3-yl]acetamide]: it took 26.38 ± 0.18 µM to reach half-maximal inhibition (IC50).

In turn, `CCCCCCSc1nc2ccccc2n1CC(=O)NN1C(=O)CSC1c1ccc(C)cc1` (stereo not drawn) [Compound 24, 2-[2-(Hexylthio)-1H-benzo[d]imidazole-1-yl)-N-[4-oxo-2-(p-tolyl)thiazolidin-3-yl]acetamide] yielded an IC50 of 23.7 ± 0.25 µM.

For the origin of these results see article PMC9386811 (ACS Omega, 2022).
